Experimental data as given in US20110166223A1, “METHODS OF INHIBITING FGFR3 SIGNALING” (CEDARS-SINAI MEDICAL CENTER, priority 2008, published 2011).

Biological target: T1, recombinant tyrosine kinase (TK) domain of FGFR3 (Homo sapiens, UniProt P22607)
T1 construct: recombinant tyrosine kinase (TK) domain of FGFR3 (Glu-322-Thr-806; Cell Signaling); purchased Cell Signaling
Assay: Cell-free FGFR3 kinase assay with STAT1 as substrate
Assay type: biochemical
Settings: for effect on FGFR3 kinase activity (in words): added directly to the kinase reaction, FIG. 4
Experimental: FIG. 4, in accordance with an embodiment herein, depicts 4,4′,4″,4′″-[carbonyl-bis[imino-5,1,3-benzenetriyl bis-{carbonylimino}]]tetrakis-{benzene-1,3-disulfonic acid} inhibits FGFR3 activity in a kinase assay. (a, b) Cell-free kinase assays were carried out as described herein, with recombinant tyrosine kinase (TK) domain of FGFR3 as a kinase, recombinant STAT1 as a substrate, and NF449 added directly to the kinase reaction. FGFR3-mediated phosphorylation of STAT1 was detected by WB with P-STAT1 (Y^701) antibody. The membrane was reprobed with FGFR3 and STAT1 antibodies to control for kinase and substrate quantity. The sample with ATP omitted serves as a negative control for the kinase reaction. Note the FGFR3-mediated phosphorylation of STAT1 is inhibited by 4,4′,4″,4′″-[carbonyl-bis[imino-5,1,3-benzenetriyl bis-{carbonylimino}]]tetrakis-{benzene-1,3-disulfonic acid}. The P-STAT1 and STAT1 signal was quantified by densitometry and expressed as a ratio between P-STAT1 and STAT1 signal for each given sample (b, lower graph). (c) The FGFR3 kinase assay was carried-out as described in (a) with 4,4′,4″,4′″-[carbonyl-bis[imino-5,1,3-benzenetriyl bis-{carbonylimino}]]tetrakis-{benzene-1,3-disulfonic acid}, 8,8′-[carbonylbis[imino-3,1-phenylenecarbonylimino{4-methyl-3,1-phenylene}carbonylimino]]bis-1,3,5-naphthalenetrisulfonic acid or 8,8′-[carbonylbis[imino-3,1-phenylene]]bis-{1,3,5-naphthalenetrisulfonic acid} added to the kinase reaction. Note the differential effects of 8,8′-[carbonylbis[imino-3,1-phenylenecarbonylimino{4-methyl-3,1-phenylene}carbonylimino]]bis-1,3,5-naphthalenetrisulfonic acid and 8,8′-[carbonylbis[imino-3,1-phenylene]]Bis-{1,3,5-naphthalenetrisulfonic acid} on the FGFR3-mediated phosphorylation of STAT1, which corresponds to their activity in the RCS growth-arrest experiment (lower graph). Data are an average from four wells with the indicated standard deviation. Statistically significant rescue of the growth arrest is indicated (Student's I-test; *-p<0.01).
OPM2 and KMS11 cells were lysed in ice-cold immunoprecipitation buffer (50 mM Tris-HCl pH 7.4, 150 mM NaCl, 0.5% NP-40, 1 mM EDTA, 25 mM NaF) supplemented with proteinase inhibitors and 10 mM sodium orthovanadate. Protein samples were resolved by SDS-PAGE and transferred onto a PVDF membrane. The following antibodies were used: Erk1/2, P-Erk1/2^T202/Y204, STAT1, P-STAT1^Y701 (Cell Signaling, Beverly, Mass.) and FGFR3 (Santa Cruz Biotechnology, Santa Cruz, Calif.). Western blotting signal was quantified by determining the integrated optical density (I.O.D.) of a given band using Scion Image software (Scion Corporation, Frederick, Mass.). Immunoprecipitations and FGFR3 kinase assays were performed as described. Briefly, the pRK7 vector encoding C-terminally FLAG-tagged K650E-FGFR3 was transfected into CHO cells using FuGENE6 reagent according to the manufacturer's protocol (Roche Applied Science, Indianapolis, Ind.). 48 hours after transfection, cells were treated with 20 ng/ml of FGF2 for 15 minutes and K650E-FGFR3 was immunoprecipitated from 800 μg of cell lysate protein using 4 μg of anti-FLAG antibody (Sigma-Aldrich, St. Louis, Mo.). Cells transfected with a plasmid encoding green fluorescent protein (pCCEY) serve as a negative control for the immunoprecipitation. Immunocomplexes were washed two times with kinase buffer (60 mM HEPES-NaOH pH 7.5, 3 mM MgCl2, 3 mM MnCl2, 3 μM Na3VO4, 1.2 mM dithiothreitol), and the kinase reactions were performed for 30 minutes at 30° C. in the presence of 2.5 μg of polyethylene glycol, 10 μM ATP, 300 ng of recombinant STAT1 (Active Motif, Carlsbad, Calif.) as a substrate, and NF449 added directly to the kinase reaction. Kinase assays utilizing recombinant tyrosine kinase (TK) domain of FGFR3 (Glu-322-Thr-806; Cell Signaling) were carried-out similarly, with 300 ng of kinase used in 50 μl reaction, and suramin, NF449 and NF023 added directly to the kinase reaction. […]

T1 sequence (P22607 322-806): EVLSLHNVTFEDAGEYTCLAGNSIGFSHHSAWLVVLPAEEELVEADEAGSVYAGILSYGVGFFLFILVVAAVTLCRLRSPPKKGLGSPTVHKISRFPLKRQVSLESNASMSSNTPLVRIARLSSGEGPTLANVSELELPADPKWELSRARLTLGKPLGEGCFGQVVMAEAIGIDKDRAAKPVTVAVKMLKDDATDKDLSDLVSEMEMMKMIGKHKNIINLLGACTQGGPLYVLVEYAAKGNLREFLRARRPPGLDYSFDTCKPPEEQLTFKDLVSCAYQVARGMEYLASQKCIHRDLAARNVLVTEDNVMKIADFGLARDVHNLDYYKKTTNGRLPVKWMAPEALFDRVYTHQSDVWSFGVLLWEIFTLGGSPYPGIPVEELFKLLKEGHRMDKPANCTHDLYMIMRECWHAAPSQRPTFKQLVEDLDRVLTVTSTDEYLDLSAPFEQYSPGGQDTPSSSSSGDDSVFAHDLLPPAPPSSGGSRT

O=C(Nc1cc(C(=O)Nc2ccc(S(=O)(=O)O)cc2S(=O)(=O)O)cc(C(=O)Nc2ccc(S(=O)(=O)O)cc2S(=O)(=O)O)c1)Nc1cc(C(=O)Nc2ccc(S(=O)(=O)O)cc2S(=O)(=O)O)cc(C(=O)Nc2ccc(S(=O)(=O)O)cc2S(=O)(=O)O)c1 [NF449, 4,4′,4″,4′″-[carbonyl-bis[imino-5,1,3-benzenetriylbis-{carbonylimino}]]tetrakis-{benzene-1,3-disulfonic acid}]
inhibition of FGFR3 kinase activity (0.1-30 μM range, FIG. 4b): some inhibition of FGFR3 kinase activity at all concentrations
FGFR3-mediated tyrosine phosphorylation of STAT1 (5-30 μM NF449 concentration range, FIG. 4a): inhibited at all concentrations
concentration necessary to achieve more than 50% inhibition of FGFR3 kinase activity (FIG. 4b, densitometry P-STAT1/STAT1): ≥ 2 µM
effect on FGFR3 kinase activity (in words): inhibited the FGFR3-mediated tyrosine phosphorylation of STAT1
effect on FGFR3 kinase activity (in words) (listed as 4,4′,4″,4′″-[carbonyl-bis[imino-5,1,3-benzenetriyl bis-{carbonylimino}]]tetrakis): inhibited
concentration range inhibiting FGFR3 kinase activity (comparison with SU5402): 2 to 20 µM
